For assay [1], the target named is Insulin receptor-related protein (Homo sapiens) (UniProt P14616). Nature of the assay: Inhibition of human IRR at 18.6 nM by HotSpot assay relative to control.
In assay [2] the target is T1, Serine/threonine-protein kinase ULK1 (Homo sapiens) (UniProt O75385).
T1 sequence (whole entry): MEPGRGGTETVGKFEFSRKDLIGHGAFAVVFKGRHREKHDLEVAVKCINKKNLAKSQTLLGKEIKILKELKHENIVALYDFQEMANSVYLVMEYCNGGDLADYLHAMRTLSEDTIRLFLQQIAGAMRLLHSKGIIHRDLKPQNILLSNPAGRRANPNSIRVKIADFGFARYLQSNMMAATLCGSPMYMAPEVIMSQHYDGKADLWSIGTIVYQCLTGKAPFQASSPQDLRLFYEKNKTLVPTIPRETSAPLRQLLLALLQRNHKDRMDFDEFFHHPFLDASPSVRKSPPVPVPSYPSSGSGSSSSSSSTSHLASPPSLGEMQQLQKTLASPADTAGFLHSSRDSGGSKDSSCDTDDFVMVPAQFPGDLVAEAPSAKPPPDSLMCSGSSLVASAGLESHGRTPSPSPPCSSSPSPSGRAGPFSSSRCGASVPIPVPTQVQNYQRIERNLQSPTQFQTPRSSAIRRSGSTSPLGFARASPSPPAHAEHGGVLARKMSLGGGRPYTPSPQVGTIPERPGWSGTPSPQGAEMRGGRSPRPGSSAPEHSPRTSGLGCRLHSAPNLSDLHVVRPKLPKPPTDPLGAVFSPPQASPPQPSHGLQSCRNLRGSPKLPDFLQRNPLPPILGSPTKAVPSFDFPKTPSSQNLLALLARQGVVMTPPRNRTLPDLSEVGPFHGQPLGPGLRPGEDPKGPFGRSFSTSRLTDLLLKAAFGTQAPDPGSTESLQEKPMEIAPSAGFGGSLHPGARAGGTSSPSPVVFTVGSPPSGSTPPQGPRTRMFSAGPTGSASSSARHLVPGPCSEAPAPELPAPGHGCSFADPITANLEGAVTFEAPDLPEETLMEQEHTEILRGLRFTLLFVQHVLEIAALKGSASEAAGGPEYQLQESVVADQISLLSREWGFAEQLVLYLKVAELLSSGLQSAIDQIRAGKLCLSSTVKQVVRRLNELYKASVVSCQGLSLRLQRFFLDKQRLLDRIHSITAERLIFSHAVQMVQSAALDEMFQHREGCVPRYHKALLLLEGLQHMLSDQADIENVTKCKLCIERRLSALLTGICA
Nature of the assay: Inhibition of human ULK1 at 18.6 nM by HotSpot assay relative to control.

Assay [3] concerns the target TGF-beta receptor type-2 (Homo sapiens) (UniProt P37173). Nature of the assay: Inhibition of human TGFBR2 at 18.6 nM by HotSpot assay relative to control.
Assay [4] deals with T2, Serine/threonine-protein kinase TAO1 (Homo sapiens) (UniProt Q7L7X3).
T2 sequence (whole entry): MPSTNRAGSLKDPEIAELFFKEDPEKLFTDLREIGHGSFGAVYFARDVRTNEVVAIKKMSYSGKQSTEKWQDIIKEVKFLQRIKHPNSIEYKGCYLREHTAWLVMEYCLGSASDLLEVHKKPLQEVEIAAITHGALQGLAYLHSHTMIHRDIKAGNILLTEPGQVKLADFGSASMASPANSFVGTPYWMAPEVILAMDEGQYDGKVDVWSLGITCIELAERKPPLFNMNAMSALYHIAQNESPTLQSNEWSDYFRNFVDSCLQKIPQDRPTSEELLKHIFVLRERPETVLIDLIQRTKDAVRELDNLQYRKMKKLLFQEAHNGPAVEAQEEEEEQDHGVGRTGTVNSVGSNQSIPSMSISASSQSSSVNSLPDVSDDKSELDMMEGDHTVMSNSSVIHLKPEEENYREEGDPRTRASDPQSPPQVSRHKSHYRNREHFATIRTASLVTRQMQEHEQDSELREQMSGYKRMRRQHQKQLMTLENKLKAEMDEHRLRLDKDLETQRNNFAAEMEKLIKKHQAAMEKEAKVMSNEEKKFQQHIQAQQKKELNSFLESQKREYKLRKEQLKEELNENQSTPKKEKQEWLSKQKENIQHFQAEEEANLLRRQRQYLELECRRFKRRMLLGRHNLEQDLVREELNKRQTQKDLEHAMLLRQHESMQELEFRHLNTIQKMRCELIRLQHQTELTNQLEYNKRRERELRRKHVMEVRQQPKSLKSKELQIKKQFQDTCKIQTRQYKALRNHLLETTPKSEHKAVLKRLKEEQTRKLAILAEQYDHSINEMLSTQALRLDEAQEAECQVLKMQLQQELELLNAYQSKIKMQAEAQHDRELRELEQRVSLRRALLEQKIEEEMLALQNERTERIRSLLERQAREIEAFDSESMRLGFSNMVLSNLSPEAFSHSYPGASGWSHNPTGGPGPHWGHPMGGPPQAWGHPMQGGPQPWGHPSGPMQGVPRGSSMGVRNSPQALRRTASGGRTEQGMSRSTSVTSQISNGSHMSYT
The experiment in a line: Inhibition of human TAOK1 at 18.6 nM by HotSpot assay relative to control.

In assay [5] the target is Protein kinase C delta type (Homo sapiens) (UniProt Q05655). Nature of the assay: Inhibition of human PKCd at 18.6 nM by HotSpot assay relative to control.
Chain of Protein kinase C delta type (Homo sapiens) (Q05655 whole entry, looked up): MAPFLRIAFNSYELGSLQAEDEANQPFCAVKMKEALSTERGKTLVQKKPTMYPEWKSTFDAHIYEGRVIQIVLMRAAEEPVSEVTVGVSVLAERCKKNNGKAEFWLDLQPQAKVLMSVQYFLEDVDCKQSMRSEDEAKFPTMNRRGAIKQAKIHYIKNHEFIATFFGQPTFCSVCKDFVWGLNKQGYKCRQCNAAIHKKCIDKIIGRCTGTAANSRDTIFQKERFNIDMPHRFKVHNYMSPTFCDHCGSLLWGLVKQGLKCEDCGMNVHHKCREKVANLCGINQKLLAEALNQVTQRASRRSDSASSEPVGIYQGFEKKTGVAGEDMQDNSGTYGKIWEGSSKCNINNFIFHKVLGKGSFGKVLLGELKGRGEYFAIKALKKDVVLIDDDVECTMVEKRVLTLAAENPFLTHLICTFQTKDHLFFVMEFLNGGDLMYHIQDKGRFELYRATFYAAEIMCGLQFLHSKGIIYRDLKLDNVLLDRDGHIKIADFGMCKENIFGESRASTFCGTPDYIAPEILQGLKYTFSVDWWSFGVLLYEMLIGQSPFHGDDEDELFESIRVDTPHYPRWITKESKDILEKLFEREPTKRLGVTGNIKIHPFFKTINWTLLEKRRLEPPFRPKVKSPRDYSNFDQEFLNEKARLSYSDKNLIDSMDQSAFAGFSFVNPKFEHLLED
Assay [6] has as its target Ribosomal protein S6 kinase alpha-4 (Homo sapiens) (UniProt O75676). The experiment in a line: Inhibition of human RPS6KA4 at 18.6 nM by HotSpot assay relative to control.
In assay [7] the target is Serine/threonine-protein kinase pim-2 (Homo sapiens) (UniProt Q9P1W9). The experiment in a line: Inhibition of human PIM2 at 500 nM by HotSpot assay relative to control.
Chain of Serine/threonine-protein kinase pim-2 (Homo sapiens) (Q9P1W9 whole entry, looked up): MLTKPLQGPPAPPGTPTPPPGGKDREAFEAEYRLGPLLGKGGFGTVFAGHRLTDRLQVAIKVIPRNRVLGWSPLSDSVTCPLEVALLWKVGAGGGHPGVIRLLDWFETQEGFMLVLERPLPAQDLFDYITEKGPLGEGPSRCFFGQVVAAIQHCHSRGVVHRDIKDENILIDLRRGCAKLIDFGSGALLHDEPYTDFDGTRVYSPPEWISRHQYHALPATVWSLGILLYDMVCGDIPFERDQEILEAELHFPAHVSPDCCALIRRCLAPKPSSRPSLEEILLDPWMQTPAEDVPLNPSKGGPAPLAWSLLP
For assay [8], the target named is Protein kinase C gamma type (Homo sapiens) (UniProt P05129). Nature of the assay: Inhibition of human PKCg at 1.82 nM by HotSpot assay relative to control.
Assay [9] has as its target MAP kinase-interacting serine/threonine-protein kinase 1 (Homo sapiens) (UniProt Q9BUB5). Nature of the assay: Inhibition of human MNK1 at 1.82 nM by HotSpot assay relative to control.
For assay [10], the target named is Tyrosine-protein kinase Lyn (Homo sapiens) (UniProt P07948). The experiment in a line: Inhibition of human LYN at 1.82 nM by HotSpot assay relative to control.
Chain of Tyrosine-protein kinase Lyn (Homo sapiens) (P07948 2-512 limits assumed): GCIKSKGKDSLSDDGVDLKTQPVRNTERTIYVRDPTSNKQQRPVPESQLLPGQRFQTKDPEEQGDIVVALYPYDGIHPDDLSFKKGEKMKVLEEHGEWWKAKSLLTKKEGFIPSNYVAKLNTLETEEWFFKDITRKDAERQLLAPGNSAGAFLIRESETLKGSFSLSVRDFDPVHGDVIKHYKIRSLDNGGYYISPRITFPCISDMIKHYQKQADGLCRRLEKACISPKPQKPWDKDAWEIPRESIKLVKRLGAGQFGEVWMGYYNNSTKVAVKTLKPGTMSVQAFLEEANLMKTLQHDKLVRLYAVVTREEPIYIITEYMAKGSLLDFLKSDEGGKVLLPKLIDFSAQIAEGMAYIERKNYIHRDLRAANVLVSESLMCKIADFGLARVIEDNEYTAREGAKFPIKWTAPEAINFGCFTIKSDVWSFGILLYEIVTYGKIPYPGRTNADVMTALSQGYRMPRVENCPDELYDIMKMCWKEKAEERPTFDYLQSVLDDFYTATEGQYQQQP
Assay [11] addresses Ephrin type-A receptor 5 (Homo sapiens) (UniProt P54756). Nature of the assay: Inhibition of human EPHA5 at 1.82 nM by HotSpot assay relative to control.

As usually defined, the inhibition is the relative decrease from the control value, in per cent.

Chain of Ephrin type-A receptor 5 (Homo sapiens) (P54756 whole entry): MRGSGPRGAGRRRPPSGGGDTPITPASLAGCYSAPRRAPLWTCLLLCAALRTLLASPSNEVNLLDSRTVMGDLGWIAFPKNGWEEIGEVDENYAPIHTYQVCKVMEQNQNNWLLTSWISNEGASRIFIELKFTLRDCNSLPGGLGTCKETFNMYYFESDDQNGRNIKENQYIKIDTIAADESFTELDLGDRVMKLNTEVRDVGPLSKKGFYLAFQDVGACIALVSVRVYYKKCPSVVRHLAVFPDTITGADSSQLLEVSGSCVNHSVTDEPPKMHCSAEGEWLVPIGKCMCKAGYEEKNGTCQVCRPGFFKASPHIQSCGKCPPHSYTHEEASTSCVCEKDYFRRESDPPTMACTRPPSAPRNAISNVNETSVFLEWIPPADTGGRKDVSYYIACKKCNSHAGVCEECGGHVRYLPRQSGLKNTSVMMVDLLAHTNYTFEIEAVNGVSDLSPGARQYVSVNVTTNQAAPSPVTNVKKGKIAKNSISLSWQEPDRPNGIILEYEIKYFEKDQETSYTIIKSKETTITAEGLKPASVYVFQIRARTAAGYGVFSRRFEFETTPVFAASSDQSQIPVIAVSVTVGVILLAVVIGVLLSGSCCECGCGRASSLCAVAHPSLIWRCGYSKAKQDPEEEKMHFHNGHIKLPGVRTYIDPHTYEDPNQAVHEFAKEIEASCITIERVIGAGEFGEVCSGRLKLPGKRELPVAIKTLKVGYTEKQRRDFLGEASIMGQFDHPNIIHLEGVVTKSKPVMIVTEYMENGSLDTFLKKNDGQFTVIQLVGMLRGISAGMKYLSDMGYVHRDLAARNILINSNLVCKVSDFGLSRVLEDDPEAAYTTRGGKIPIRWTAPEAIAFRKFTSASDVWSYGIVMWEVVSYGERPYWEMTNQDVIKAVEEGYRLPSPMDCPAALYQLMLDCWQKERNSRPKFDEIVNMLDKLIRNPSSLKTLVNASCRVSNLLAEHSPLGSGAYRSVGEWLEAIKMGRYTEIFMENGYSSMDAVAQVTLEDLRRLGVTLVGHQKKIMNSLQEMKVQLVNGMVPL
Chain of TGF-beta receptor type-2 (Homo sapiens) (P37173 whole entry): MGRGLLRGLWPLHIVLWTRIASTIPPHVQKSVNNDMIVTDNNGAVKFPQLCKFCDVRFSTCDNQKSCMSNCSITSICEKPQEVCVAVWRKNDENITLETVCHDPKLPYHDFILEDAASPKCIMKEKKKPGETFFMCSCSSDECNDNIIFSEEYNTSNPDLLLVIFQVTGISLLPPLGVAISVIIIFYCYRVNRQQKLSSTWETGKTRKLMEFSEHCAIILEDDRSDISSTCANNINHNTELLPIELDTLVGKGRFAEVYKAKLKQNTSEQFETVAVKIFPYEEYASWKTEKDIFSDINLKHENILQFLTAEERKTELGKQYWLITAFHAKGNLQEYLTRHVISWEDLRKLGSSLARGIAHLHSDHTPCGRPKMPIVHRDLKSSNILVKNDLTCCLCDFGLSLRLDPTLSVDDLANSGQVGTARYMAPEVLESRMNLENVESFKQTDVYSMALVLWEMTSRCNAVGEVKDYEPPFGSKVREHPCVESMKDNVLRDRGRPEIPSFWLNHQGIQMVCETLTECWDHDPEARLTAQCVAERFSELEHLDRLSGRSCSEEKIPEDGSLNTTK
Chain of MAP kinase-interacting serine/threonine-protein kinase 1 (Homo sapiens) (Q9BUB5 whole entry, looked up): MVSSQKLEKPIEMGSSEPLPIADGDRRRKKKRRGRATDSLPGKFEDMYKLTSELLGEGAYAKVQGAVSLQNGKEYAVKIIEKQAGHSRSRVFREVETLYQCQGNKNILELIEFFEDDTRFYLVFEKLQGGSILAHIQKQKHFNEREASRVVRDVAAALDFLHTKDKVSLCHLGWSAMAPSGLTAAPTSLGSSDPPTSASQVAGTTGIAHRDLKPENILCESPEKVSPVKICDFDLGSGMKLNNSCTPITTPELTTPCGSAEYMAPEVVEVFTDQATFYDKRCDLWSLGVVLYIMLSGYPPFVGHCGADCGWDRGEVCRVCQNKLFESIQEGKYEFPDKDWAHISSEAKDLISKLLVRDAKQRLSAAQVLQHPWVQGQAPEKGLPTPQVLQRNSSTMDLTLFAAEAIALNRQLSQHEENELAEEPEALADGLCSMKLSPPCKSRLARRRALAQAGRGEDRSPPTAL
Chain of Ribosomal protein S6 kinase alpha-4 (Homo sapiens) (O75676 whole entry, looked up): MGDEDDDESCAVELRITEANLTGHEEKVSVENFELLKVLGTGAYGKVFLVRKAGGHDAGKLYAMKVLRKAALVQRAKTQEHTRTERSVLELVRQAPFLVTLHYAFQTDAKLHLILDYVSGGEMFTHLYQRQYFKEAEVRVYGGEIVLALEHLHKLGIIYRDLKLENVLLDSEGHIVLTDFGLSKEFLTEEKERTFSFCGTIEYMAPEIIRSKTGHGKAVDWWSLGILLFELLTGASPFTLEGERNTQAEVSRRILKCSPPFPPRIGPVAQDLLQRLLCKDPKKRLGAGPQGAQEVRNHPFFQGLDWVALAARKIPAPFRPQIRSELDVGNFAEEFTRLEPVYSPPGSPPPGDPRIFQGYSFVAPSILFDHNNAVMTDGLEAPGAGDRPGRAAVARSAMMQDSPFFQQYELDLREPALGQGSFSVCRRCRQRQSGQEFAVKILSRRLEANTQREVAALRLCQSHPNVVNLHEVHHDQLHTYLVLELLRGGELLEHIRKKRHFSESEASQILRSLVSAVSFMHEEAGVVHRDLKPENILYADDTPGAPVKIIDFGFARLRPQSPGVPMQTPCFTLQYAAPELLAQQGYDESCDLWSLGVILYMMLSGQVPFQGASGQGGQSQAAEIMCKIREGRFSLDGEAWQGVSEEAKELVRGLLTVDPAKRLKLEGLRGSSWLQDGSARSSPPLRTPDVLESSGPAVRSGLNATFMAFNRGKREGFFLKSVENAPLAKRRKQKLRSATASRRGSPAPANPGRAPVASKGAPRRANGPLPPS

`C[C@]1(O)C[C@@H](c2nc(-c3ccc4ccc(-c5ccccc5)nc4c3)c3c(N)nccn32)C1`: the inhibition in [1] was 100%; in [2], 2.65%; in [3] it was 8.98%; in [4], 0.77%; in assay [5], -2%; in assay [6], -2.53%.

Take `Nc1n[nH]c2nnc(-c3c(-c4ccccc4)nn4ccccc34)cc12`: the inhibition in [7] was found to be 8.35%.

For `C[C@@]1(C(=O)Nc2ccc(F)nc2)CCCN1c1nc(Nc2cc(C3CC3)n[nH]2)c2cccn2n1`, the inhibition in [8] was -7.52%; in assay [9], 5.01%; in assay [10] it was 3.66%; in [11] it was -1.69%.

The values are drawn from ChEMBL document CHEMBL5653615 (J Biol Chem, 2013).
